Assay results as given in PMC6383929, “Design, antimicrobial activity and mechanism of action of Arg-rich ultra-short cationic lipopeptides” (PLoS ONE, 2019).
Values after ≈ are worked out from the molar mass of the structure shown. Where a SMILES comes first, the peptide text is derived from it. The star is where a group is joined. Lauroyl = CCCCCCCCCCCC(=O)*

Experiments:
[1] = test system: S. maltophilia ATCC 13637; assay type: cell-based, Stenotrophomonas maltophilia; settings: ATCC 13637, 48 h
Source text: (§1) Bacteria used in this study were Escherichia coli ATCC 25922 and O18K1H7, Staphylococcus aureus ATCC 25923 and ATCC 29213, Pseudomonas aeruginosa ATCC 27853, Staphylococcus epidermidis ATCC 12228, Enterococcus faecalis ATCC 29212, Bacillus subtilis DSM 4181, Listeria monocytogenes DSM 20600, Salmonella typhimurium ATCC 14028, Acinetobacter baumannii ATCC 19606 and 17978, Klebsiella pneumoniae ATCC 13883 and 700603, Stenotrophomonas maltophilia ATCC 13637 and Burkholderia cenocepacia J2315. In addition to reference strains, a clinical isolate of E. faecalis vancomycin-resistant (VREF, strain M), and three clinical isolates of S. aureus methicillin-resistant (MRSA, strains E, G and 11), kindly provided by Dr. Lucilla Dolzani, were used. All MRSA strains are resistant to GEN, IPM, OXA, PEN, CIP and CEF; the S. aureus E strain is also resistant to CLI and ERY. VREF strain is resistant to AMK, ATM, GEN, NET, PEN, TEC, TET, TOB and VAN.
(§2) For the assays, overnight bacterial cultures were diluted 1:30 in fresh Mueller-Hinton Broth (MHB, Difco) and incubated at 37°C with shaking for approximately 2h.
(§3) The antimicrobial activity of USCLs was determined by the Minimum Inhibitory Concentration (MIC) assay, according to the guidelines of CLSI (Clinical & Laboratory Standards Institute) and described in [30, 31]. Briefly, the assays were performed in 96-well microplates in appropriate broth (MHB or SAB). […] […] The fungal suspension in SAB broth was used at a final concentration of 5 × 10^4 cells/mL. Microplates were then incubated at 30°C for 48h. The MIC value was taken as the lowest concentration of USCLs resulting in the complete inhibition of visible bacterial or fungal growth after appropriate incubation time. Results derive from at least three independent experiments carried out in duplicate.

[2] = RP-HPLC retention time (hydrophobicity); assay type: physicochemical; settings: stated to reliably reflect the hydrophobicity in aqueous solution, assessed and provided by GenScript
Experimental: GenScript (Piscataway, NJ, USA) carried out the custom synthesis of USCLs by using high efficient solid phase peptide synthesis. The fatty acid was conjugated to the N-terminus of the peptide using the same procedure followed to attach protected amino acids to the growing peptide chain for synthesis. The purity (>90%), sequence and molecular weight of USCLs were assessed and provided by GenScript using RP-HPLC and ESI-MS. USCLs were dissolved in sterile water or DMSO at 10 mg/mL, according to manufacturer's indications.

B. cenocepacia J2315 = assay type: cell-based, Burkholderia cenocepacia; settings: 48 h
Source text: as §1, §2, §3

E. coli O18K1H7 = assay type: cell-based, Escherichia coli; settings: O18K1H7, 24 h
Source text: as §1, §2
(§4) The antimicrobial activity of USCLs was determined by the Minimum Inhibitory Concentration (MIC) assay, according to the guidelines of CLSI (Clinical & Laboratory Standards Institute) and described in [30, 31]. Briefly, the assays were performed in 96-well microplates in appropriate broth (MHB or SAB). […] For bacteria, a mid-log phase bacterial suspension at 2.5 × 10^5 CFU/mL in MHB was used, and the microplates incubated at 37°C for 24h. The fungal suspension in SAB broth was used at a final concentration of 5 × 10^4 cells/mL. Microplates were then incubated at 30°C for 48h. The MIC value was taken as the lowest concentration of USCLs resulting in the complete inhibition of visible bacterial or fungal growth after appropriate incubation time. Results derive from at least three independent experiments carried out in duplicate.

S. aureus ATCC 25923 = assay type: cell-based, Staphylococcus aureus; settings: ATCC 25923, 24 h
Source text: as §1, §2, §4

[3] = test system: S. aureus G (MRSA clinical isolate); assay type: cell-based, Staphylococcus aureus; settings: G ( clinical isolate, 24 h)
Source text: as §1, §2, §4

S. aureus ATCC 29213 = assay type: cell-based, Staphylococcus aureus; settings: ATCC 29213, 24 h
Source text: as §1, §2, §4

[4] = test system: S. aureus E (MRSA clinical isolate); assay type: cell-based, Staphylococcus aureus; settings: E ( clinical isolate, 24 h)
Source text: as §1, §2, §4

[5] = test system: S. aureus 11 (MRSA clinical isolate); assay type: cell-based, Staphylococcus aureus; settings: 11 ( clinical isolate, 24 h)
Source text: as §1, §2, §4

C. albicans ATCC 90029 = assay type: cell-based, Candida albicans; settings: ATCC 90029, 48 h
Experimental: (§5) Fungal strains used were Candida albicans ATCC 90029 and SC5314. Fungi were grown on Sabouraud dextrose (SAB, Difco) agar plates at 30°C for 48h. The initial fungal inoculum was prepared by picking and suspending five colonies in 5 mL of sterile PBS.
as §4

C. albicans SC 5314 = assay type: cell-based, Candida albicans; settings: SC 5314, 48 h
Experimental: as §5, §4

A. baumannii ATCC 17978 = assay type: cell-based, Acinetobacter baumannii; settings: ATCC 17978, 24 h
Source text: as §1, §2, §4

A. baumannii ATCC 19606 = assay type: cell-based, Acinetobacter baumannii; settings: ATCC 19606, 24 h
Source text: as §1, §2, §4

E. faecalis ATCC 29212 = assay type: cell-based, Enterococcus faecalis; settings: ATCC 29212, 24 h
Source text: as §1, §2, §4

K. pneumoniae ATCC 13883 = assay type: cell-based, Klebsiella pneumoniae; settings: ATCC 13883, 24 h
Source text: as §1, §2, §4

[6] = test system: K. pneumoniae ATCC 700603; assay type: cell-based, Klebsiella pneumoniae; settings: ATCC 700603, 24 h
Source text: as §1, §2, §4

[7] = test system: L. monocytogenes DSM 20600; assay type: cell-based, Listeria monocytogenes; settings: DSM 20600, 24 h
Source text: as §1, §2, §4

P. aeruginosa ATCC 27853 = assay type: cell-based, Pseudomonas aeruginosa; settings: ATCC 27853, 24 h
Source text: as §1, §2, §4

E. coli ATCC 25922 = assay type: cell-based, Escherichia coli; settings: ATCC 25922, 24 h
Source text: as §1, §2, §4

[8] = test system: E. faecalis M (VREF clinical isolate); assay type: cell-based, Enterococcus faecalis; settings: M (VREF clinical isolate, 24 h)
Source text: as §1, §2, §4

[9] = test system: S. typhimurium ATCC 14028; assay type: cell-based, Salmonella typhimurium; settings: ATCC 14028, 24 h
Source text: as §1, §2, §4

B. subtilis DSM 4181 = assay type: cell-based, Bacillus subtilis; settings: DSM 4181, 24 h
Source text: as §1, §2, §4

SMILES	MIC [1]	Retention time [2]	MIC (B. cenocepacia J2315)	MIC (E. coli O18K1H7)	MIC (S. aureus ATCC 25923)	MIC [3]	MIC (S. aureus ATCC 29213)	MIC [4]	MIC (C. albicans ATCC 90029)	MIC (C. albicans SC 5314)	MIC (A. baumannii ATCC 17978)	MIC (A. baumannii ATCC 19606)	MIC (E. faecalis ATCC 29212)	MIC [7]	also measured
CCCCCCCCCCCC(=O)N[C@@H](CCCNC(=N)N)C(=O)N[C@@H](CCCNC(=N)N)C(=O)N[C@@H](Cc1ccccc1)C(=O)N[C@@H](Cc1c[nH]c2ccccc12)C(N)=O [Lau-RRFW, Lau-RRFW-NH2] (Lauroyl-RRFW-NH2)	6.25 µg/mL (≈ 7.4 µM)	22.609 min	12.5 µg/mL (≈ 14.8 µM)	12.5 µg/mL (≈ 14.8 µM)	3.125 µg/mL (≈ 3.7 µM)	6.25 µg/mL (≈ 7.4 µM)	3.125 µg/mL (≈ 3.7 µM)	3.125 µg/mL (≈ 3.7 µM)	3.125 µg/mL (≈ 3.7 µM)	12.5 µg/mL (≈ 14.8 µM)	12.5 µg/mL (≈ 14.8 µM)	12.5 µg/mL (≈ 14.8 µM)	6.25 µg/mL (≈ 7.4 µM)	3.125 µg/mL (≈ 3.7 µM)	MIC [5]: 6.25 µg/mL (≈ 7.4 µM); MIC (K. pneumoniae ATCC 13883): 50 µg/mL (≈ 59.2 µM); MIC [6]: 25 µg/mL (≈ 29.6 µM)
CCCCCCCCCCCC(=O)N[C@@H](CCCNC(=N)N)C(=O)N[C@@H](CCCNC(=N)N)C(=O)N[C@H](C(=O)N[C@@H](Cc1c[nH]c2ccccc12)C(N)=O)[C@@H](C)CC [Lau-RRIW, Lau-RRIW-NH2] (Lauroyl-RRIW-NH2)	12.5 µg/mL (≈ 15.4 µM)	20.957 min	6.25 µg/mL (≈ 7.71 µM)	12.5 µg/mL (≈ 15.4 µM)	3.125 µg/mL (≈ 3.85 µM)	3.125 µg/mL (≈ 3.85 µM)	3.125 µg/mL (≈ 3.85 µM)	3.125 µg/mL (≈ 3.85 µM)	3.125 µg/mL (≈ 3.85 µM)	12.5 µg/mL (≈ 15.4 µM)	25 µg/mL (≈ 30.8 µM)	12.5 µg/mL (≈ 15.4 µM)	6.25 µg/mL (≈ 7.71 µM)	3.125 µg/mL (≈ 3.85 µM)	MIC (P. aeruginosa ATCC 27853): 12.5 µg/mL (≈ 15.4 µM); MIC (E. coli ATCC 25922): 12.5 µg/mL (≈ 15.4 µM); MIC [8]: 6.25 µg/mL (≈ 7.71 µM); MIC [9]: 25 µg/mL (≈ 30.8 µM); MIC (B. subtilis DSM 4181): 3.125 µg/mL (≈ 3.85 µM)
